{
  "source": "patent US20110008495A1",
  "about": "“LIQUID DIETARY SUPPLEMENT COMPOSITION” (NAWGAN PRODUCTS, LLC, priority 2009, published 2011)",
  "origin": "cited, not measured here",
  "key": {"[1]": {"details": "midlife caffeine consumption"}, "[2]": {"test_system": "individuals diagnosed with mild to moderate Alzheimer's disease"}, "[3]": {"test_system": "diabetic animals", "details": "long-term consumption in distilled water"}},
  "data": [
    {"molecule": "Cn1c(=O)c2c(ncn2C)n(C)c1=O", "note": "[caffeine]", "values": [
      {"measurement": "risk of dementia later in life", "setting": "[1]", "result": "significantly reduces"}
    ]},
    {"molecule": "C[N+](C)(C)CCOP(=O)([O-])OC[C@H](O)CO", "note": "[A-GPC, α-glyceryl phosphoryl choline]", "values": [
      {"measurement": "absolute magnitude of change in overall cognitive ability (Mini Mental State Exam)", "setting": "[2]; A-GPC over a 6 month period", "result": "offset a full year of typical decline"},
      {"measurement": "verbal memory and overall cognitive ability", "setting": "[2]; A-GPC over a 6 month period vs patients not given A-GPC, 126 individuals", "result": "significant improvements"}
    ]},
    {"molecule": "CC(C)=CCC/C(C)=C/C=C/C(C)=C/C=C/C(C)=C/C=C/C=C(C)/C=C/C=C(C)/C=C/C=C(\\C)CCC=C(C)C", "note": "[lycopene]", "values": [
      {"measurement": "markers of inflammation and oxidation", "setting": "[3]", "result": "significantly decreased"},
      {"measurement": "memory performance", "setting": "[3]", "result": "significantly improved"}
    ]}
  ]
}
